We go through 25 compounds from patent US8628771B2, “CA IX-specific inhibitors” (Institute of Virology Slovak Academy of Sciences, priority 2002, dated 2014).

For orientation: pKi means the negative decadic logarithm of the Ki, by convention in mol/L.

One assay deals with T1, hCA I (Homo sapiens, UniProt P00915).
T1 construct: made in house; host or cells: Escherichia coli BL21 (DE3)
In words: CA esterase activity assay, isozyme hCA I. Format: biochemical. The note with it: Table 2; human (cloned) isozymes; read-out: KI hCA I.

The next assay concerns the target T2, hCA II (Homo sapiens, UniProt P00918).
T2 construct: made in house; host or cells: Escherichia coli BL21 (DE3)
The assay can be described thus: CA esterase activity assay, isozyme hCA II. Format: biochemical. The note with it: read-out: KI hCA II.

In another assay the target is T3, bCA IV (Bos taurus, UniProt Q95323).
T3 construct: CA IV was isolated from bovine lung microsomes as described by Maren et al; from tissue; host or cells: bovine lung microsomes
T3 sequence (Q95323 19-284): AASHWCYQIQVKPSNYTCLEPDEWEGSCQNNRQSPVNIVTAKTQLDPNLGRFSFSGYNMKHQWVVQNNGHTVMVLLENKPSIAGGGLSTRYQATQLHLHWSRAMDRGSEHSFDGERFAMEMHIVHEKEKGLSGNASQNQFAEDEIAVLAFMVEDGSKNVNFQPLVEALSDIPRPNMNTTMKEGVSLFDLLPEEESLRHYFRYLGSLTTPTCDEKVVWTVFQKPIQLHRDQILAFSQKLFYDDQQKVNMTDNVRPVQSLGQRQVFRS
In words: CA esterase activity assay, isozyme bCA IV. The note with it: read-out: KI bCA IV. Format: biochemical, bovine.

Another assay deals with hCA IX (Homo sapiens, UniProt Q16790). The assay can be described thus: CA CO2 hydrase activity assay, tumor-associated isozyme hCA IX.
Setting [1] is: Table 2, human (cloned) isozymes.
Where [2] appears, read: Table 2, from bovine lung microsomes.
The mark [3] stands for this setting: KI against CA IX, text discussion of Tables 1-3.
The mark [4] stands for this setting: read-out: KI hCA IX, Table 2, catalytic domain of the human, cloned isozyme.

pKi: −log10 of the molar value. “And” between values parts separate entries of the source, which are not always exact repeats. Identical values can stand only once. Like-named read-outs stand apart in the source and are kept apart here.

T1 sequence (P00915 whole entry): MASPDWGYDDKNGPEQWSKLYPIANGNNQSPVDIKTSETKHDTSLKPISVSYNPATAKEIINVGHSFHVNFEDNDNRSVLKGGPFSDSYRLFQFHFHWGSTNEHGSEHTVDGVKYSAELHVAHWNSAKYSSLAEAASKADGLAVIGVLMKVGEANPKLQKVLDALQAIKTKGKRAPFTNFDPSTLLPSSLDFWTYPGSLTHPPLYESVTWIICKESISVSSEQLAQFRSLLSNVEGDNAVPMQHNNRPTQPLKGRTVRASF
Protocol for hCA IX: An SX.18MV-R Applied Photophysics stopped-flow instrument has been used for assaying the CA CO2 hydration activity assays [44]. […] Inhibitor and enzyme solutions were preincubated together for 10 min at room temperature prior to assay, in order to allow for the formation of the E-I complex.

With `CCc1cc(-c2ccccc2)cc(CC)[n+]1-c1ccc(S(N)(=O)=O)cc1` [Compound 29], the pKi was 5.22 at hCA I; 7.22 on hCA II (setting [1]); 6.74 at bCA IV (setting [2]); 7.27 to 8.22 on hCA IX (setting [3]); 7.37 at hCA IX (setting [4]).

For `CCCc1cc(-c2ccccc2)cc(CCC)[n+]1-c1ccc(S(N)(=O)=O)cc1` [Compound 30], the pKi is 5.00 on hCA I, 6.92 at hCA II (setting [1]), 6.71 at bCA IV (setting [2]) and 6.75 on hCA IX (setting [4]).

Take `Cc1cc(-c2ccccc2)cc(-c2ccccc2)[n+]1-c1ccc(S(N)(=O)=O)cc1` [Compound 32]: the pKi on hCA I is 4.40; at hCA II (setting [1]) it was 6.68; on bCA IV (setting [2]) it was 6.07; on hCA IX (setting [4]) it was 6.55.

Take `CCc1cc(-c2ccccc2)cc(-c2ccccc2)[n+]1-c1ccc(S(N)(=O)=O)cc1` [Compound 33]: the pKi on hCA I is 4.37; on hCA II (setting [1]), 6.40; at bCA IV (setting [2]) it was 5.89; at hCA IX (setting [4]) it was 6.35.

Consider `Cc1cc(C)[n+](-c2ccc(S(N)(=O)=O)cc2)c(C)c1C` [Compound 38], for which the pKi is 5.30 on hCA I; 7.40 at hCA II (setting [1]); 7.21 at bCA IV (setting [2]); 6.87 to 7.19 at hCA IX; 7.14 on hCA IX (setting [4]).

As for `Cc1cc(C)[n+](Cc2ccc(S(N)(=O)=O)cc2)c(C(C)C)c1` [Compound 40], the pKi at hCA I is 5.22; on hCA II (setting [1]) it was 7.30; on bCA IV (setting [2]), 7.10; at hCA IX (setting [4]) it was 7.38.

For the compound `Cc1cc(C(C)C)[n+](Cc2ccc(S(N)(=O)=O)cc2)c(C(C)C)c1` [Compound 41], the pKi at hCA I is 4.96; at hCA II (setting [1]) it was 7.10; at bCA IV (setting [2]), 6.84; on hCA IX (setting [4]), 7.27.

For the compound `CCc1cc(-c2ccccc2)cc(CC)[n+]1Cc1ccc(S(N)(=O)=O)cc1` [Compound 43], the negative-log Ki (pKi) was 5.70 on hCA I, 7.68 on hCA II (setting [1]), 7.28 on bCA IV (setting [2]) and 7.54 at hCA IX (setting [4]).

`CCCc1cc(-c2ccccc2)cc(CCC)[n+]1Cc1ccc(S(N)(=O)=O)cc1` [Compound 44]: the pKi on hCA I is 4.62; on hCA II (setting [1]) it was 7.05; at bCA IV (setting [2]), 6.79; on hCA IX, 6.35 to 6.80; at hCA IX (setting [4]), 6.64.

Consider `Cc1cc(-c2ccccc2)cc(-c2ccccc2)[n+]1Cc1ccc(S(N)(=O)=O)cc1` [Compound 46], for which the pKi on hCA I was 4.49; at hCA II, 6.92; on bCA IV (setting [2]), 6.79; on hCA IX (setting [4]), 7.19.

Turning to `CCc1cc(-c2ccccc2)cc(-c2ccccc2)[n+]1Cc1ccc(S(N)(=O)=O)cc1.[O-][Cl+3]([O-])([O-])[O-]` [Compound 47], the pKi at hCA I was 4.38; on hCA II (setting [1]), 6.50; on bCA IV (setting [2]) it was 6.01; at hCA IX (setting [4]), 7.10.

As for `CCCc1cc(-c2ccccc2)cc(-c2ccccc2)[n+]1Cc1ccc(S(N)(=O)=O)cc1` [Compound 48], the pKi at hCA I is 3.89; at hCA II (setting [1]), 6.41; at bCA IV (setting [2]) it was 5.90; on hCA IX (setting [4]), 7.07.

For `CCCCc1cc(-c2ccccc2)cc(-c2ccccc2)[n+]1Cc1ccc(S(N)(=O)=O)cc1.[O-][Cl+3]([O-])([O-])[O-]` [Compound 50], the pKi on hCA I is 3.52; on hCA II (setting [1]), 6.23; at bCA IV (setting [2]) it was 5.68; on hCA IX (setting [4]) it was 6.87.

`NS(=O)(=O)c1ccc(C[n+]2c(-c3ccccc3)cc(-c3ccccc3)cc2-c2ccccc2)cc1` [Compound 52]: the pKi on hCA I is 3.55; at hCA II (setting [1]), 6.33; on bCA IV (setting [2]), 5.71; on hCA IX it was 6.87 to 7.19; on hCA IX (setting [4]) it was 6.92.

As for `NS(=O)(=O)c1ccc(C[n+]2c(-c3ccccc3)cccc2-c2ccccc2)cc1` [Compound 53], the pKi on hCA I is 3.55; at hCA II (setting [1]) it was 6.31; on bCA IV (setting [2]) it was 5.71; on hCA IX, 6.87 to 7.19; on hCA IX (setting [4]) it was 6.97.

`Cc1cc(C)[n+](Cc2ccc(S(N)(=O)=O)cc2)c(C)c1C` [Compound 54]: the negative logarithm of the Ki (pKi) on hCA I was 5.52; on hCA II, 7.52; on bCA IV (setting [2]), 7.29; on hCA IX (setting [3]) it was 7.27 to 8.22; at hCA IX (setting [4]), 7.46.

In the case of `Cc1cc(C)[n+](CCc2ccc(S(N)(=O)=O)cc2)c(C(C)C)c1` [Compound 56], the pKi on hCA I is 5.70; on hCA II (setting [1]) it was 7.82; at bCA IV (setting [2]), 7.49; on hCA IX (setting [4]), 7.51.

In the case of `Cc1cc(C(C)C)[n+](CCc2ccc(S(N)(=O)=O)cc2)c(C(C)C)c1` [Compound 57], the pKi on hCA I is 5.52; on hCA II (setting [1]), 7.70; at bCA IV (setting [2]), 7.15; at hCA IX (setting [4]), 7.31.

Take `Cc1cc(-c2ccccc2)cc(C)[n+]1CCc1ccc(S(N)(=O)=O)cc1` [Compound 58]: the pKi at hCA I is 6.00; at hCA II (setting [1]), 8.10; on bCA IV (setting [2]), 7.70; at hCA IX (setting [3]), more than 8.00; at hCA IX (setting [4]) it was 8.22.

With `CCc1cc(-c2ccccc2)cc(CC)[n+]1CCc1ccc(S(N)(=O)=O)cc1` [Compound 59], the pKi was 6.00 on hCA I; 8.05 on hCA II (setting [1]); 7.68 on bCA IV (setting [2]); more than 8.00 at hCA IX; 8.10 on hCA IX (setting [4]).

In the case of `CCCc1cc(-c2ccccc2)cc(CCC)[n+]1CCc1ccc(S(N)(=O)=O)cc1` [Compound 60], the pKi at hCA I is 5.15; at hCA II (setting [1]), 7.38; at bCA IV (setting [2]), 7.09; on hCA IX, 6.35 to 6.80; on hCA IX (setting [4]) it was 6.69.

As to `CCCc1cc(-c2ccccc2)cc(-c2ccccc2)[n+]1CCc1ccc(S(N)(=O)=O)cc1` [Compound 64], the pKi on hCA I was 3.95; at hCA II (setting [1]) it was 6.57; at bCA IV, 5.98; at hCA IX (setting [4]), 7.08.

For the compound `CCCCc1cc(-c2ccccc2)cc(-c2ccccc2)[n+]1CCc1ccc(S(N)(=O)=O)cc1` [Compound 66], the pKi at hCA I is 3.54; at hCA II (setting [1]), 6.26; at bCA IV (setting [2]), 5.70; on hCA IX (setting [4]) it was 6.92.

Regarding `NS(=O)(=O)c1ccc(CC[n+]2c(-c3ccccc3)cccc2-c2ccccc2)cc1` [Compound 69], the pKi at hCA I was 3.58; at hCA II, 6.38; at bCA IV (setting [2]), 5.72; on hCA IX, 6.87 to 7.19; at hCA IX (setting [4]), 7.09.

Consider `Cc1cc(C)[n+](CCc2ccc(S(N)(=O)=O)cc2)c(C)c1C` [Compound 70], for which the pKi at hCA I is 5.70; at hCA II (setting [1]), 8.00; on bCA IV (setting [2]), 7.68; on hCA IX (setting [3]), 7.27 to 8.22 and > 8.00; on hCA IX (setting [4]), 8.10.
